{
  "source": "patent US8735375B2",
  "about": "“Therapeutic compositions” (Leo Laboratories Limited, priority 2005, dated 2014)",
  "key": {"[1]": {"assay": "Preliminary in vitro diffusion study (Franz cell)", "type": "in vitro ADME", "conditions": "human stratum corneum, at detectable levels", "source_text": "Once the stability of I3A in the excipients and penetration enhancers had been established, a preliminary in vitro diffusion experiment could be conducted to determine the permeation of stratum corneum by I3A from some simple formulations. The Franz diffusion cell is designed to mimic the physiological and anatomical conditions of skin in situ. It is an air/fluid phase static cell, which comprises a donor compartment, receptor compartment and a side arm sampling port (see FIG. 1). Surgically excised skin is positioned between the two halves with the stratum corneum facing the donor compartment to allow for drug application.\nAn initial in vitro diffusion experiment using a simple formulation of I3A in miglyol was performed. […] This formulation was used in later diffusion cell experiments as a negative control and also served to confirm the integrity of the stratum corneum, as if there is no diffusion of drug from this formulation, it can be assumed that the stratum corneum remains intact.\nA formulation of I3A was prepared in phosphate buffer (pH 4.5) with β-cyclodextrins (Captisol®) added with a view to increasing the solubility and stability of I3A, and the flux of the drug. A second formulation in DMSO, a known penetration enhancer, was also prepared for comparative purposes, as well as a formulation in miglyol, which served as a negative control. […]"}, "[2]": {"assay": "Stability of I3A isoforms in the assay solvent systems over 72 h", "type": "physicochemical", "protocol": "The stability of […] isoforms 'a', 'b' and 'c' in the three sample systems over 72 h (equivalent to the maximum possible length of time the samples might be held in the autosampler during a long HPLC analytical run) was confirmed as follows. Standards of the three isoforms of […] The standards were then each divided into three equal volumes and placed at 2-8° C., room temperature and 40° C. for 72 h and were then again analysed by HPLC."}, "[3]": {"assay": "Stability of I3A 'b' in isopropanol gel (pH 6.5)", "type": "physicochemical", "conditions": "0.02% (w/w) I3A 'b' in isopropanol gel pH 6.5; 2-8° C., RTP and 40° C.", "protocol": "The stability of I3A ‘b’ in an isopropanol gel preparation (pH 6.5) was investigated. The protocol was as follows:\nThe Carbopol® was dispersed in the water and glycerin and dissolved by heating to 40° C. in a water bath. The propyl alcohol was then added to this solution. The cyclomethicone was dissolved in the isopropyl alcohol and this second solution was mixed well with the Carbopol® solution, and then water was added, with stirring, to 100%. The pH of the gel was brought to 6.5 with the dropwise addition of ethanolamine. The isopropanol gel was stored at 2-8° C. until use.\nTo investigate the stability of I3A ‘b’ in isopropanol gel (pH 6.5), a 0.02% (w/w) I3A ‘b’/Visopropanol gel formulation was prepared and divided into three samples for storage at 2-8° C., RTP and 40° C. At regular time points the samples were analysed in duplicate for the stability of I3A ‘b’ in terms of the formation of isoform ‘a’, with the results given in FIG. 2."}, "[4]": {"conditions": "Acetonitrile/Citrate buffer (pH 3), 72 h 2-8° C."}, "[5]": {"conditions": "Acetonitrile/Citrate buffer (pH 3), 72 h 40° C."}, "[6]": {"conditions": "Acetonitrile/Citrate buffer (pH 3), 72 h RTP"}, "[7]": {"conditions": "Acetonitrile/Citrate buffer (pH 3), Time 0 h"}, "[8]": {"conditions": "Acetonitrile/Sodium acetate buffer (pH 4.5), 72 h 2-8° C."}, "[9]": {"conditions": "Acetonitrile/Sodium acetate buffer (pH 4.5), 72 h 40° C."}, "[10]": {"conditions": "Acetonitrile/Sodium acetate buffer (pH 4.5), 72 h RTP"}, "[11]": {"conditions": "Acetonitrile/Sodium acetate buffer (pH 4.5), Time 0 h"}},
  "data": [
    {"compound": "C/C=C(/C)C(=O)O[C@H]1C(C)=C[C@]23C(=O)[C@H](C=C(CO)[C@@H](O)[C@]12O)[C@H]1[C@@H](C[C@H]3C)C1(C)C", "note": "[Formulation I3A, ingenol-3-angelate]", "values": [
      {"measurement": "diffusion of I3A across the stratum corneum", "setting": "[1]", "value": "diffuses across the stratum corneum"},
      {"measurement": "% ‘a’", "setting": "[2]; Acetonitrile, 72 h 2-8° C.", "value": 3.94, "unit": "%"},
      {"measurement": "% ‘b’", "setting": "[2]; Acetonitrile, 72 h 2-8° C.", "value": 95.45, "unit": "%"},
      {"measurement": "% ‘c’", "setting": "[2]; Acetonitrile, 72 h 2-8° C.", "value": 0, "unit": "%"},
      {"measurement": "% ‘a’", "setting": "[2]; Acetonitrile, 72 h 40° C.", "value": 15.52, "unit": "%"},
      {"measurement": "% ‘b’", "setting": "[2]; Acetonitrile, 72 h 40° C.", "value": 83.35, "unit": "%"},
      {"measurement": "% ‘c’", "setting": "[2]; Acetonitrile, 72 h 40° C.", "value": 0, "unit": "%"},
      {"measurement": "% ‘a’", "setting": "[2]; Acetonitrile, 72 h RTP", "value": 5.83, "unit": "%"},
      {"measurement": "% ‘b’", "setting": "[2]; Acetonitrile, 72 h RTP", "value": 93.51, "unit": "%"},
      {"measurement": "% ‘c’", "setting": "[2]; Acetonitrile, 72 h RTP", "value": 0, "unit": "%"},
      {"measurement": "% ‘a’", "setting": "[2]; Acetonitrile, Time 0 h", "value": 0.39, "unit": "%"},
      {"measurement": "% ‘b’", "setting": "[2]; Acetonitrile, Time 0 h", "value": 99.27, "unit": "%"},
      {"measurement": "% ‘c’", "setting": "[2]; Acetonitrile, Time 0 h", "value": 0, "unit": "%"},
      {"measurement": "% ‘a’", "setting": "[2]; [4]", "value": 0.18, "unit": "%"},
      {"measurement": "% ‘b’", "setting": "[2]; [4]", "value": 99.49, "unit": "%"},
      {"measurement": "% ‘c’", "setting": "[2]; [4]", "value": 0, "unit": "%"},
      {"measurement": "% ‘a’", "setting": "[2]; [5]", "value": 0.34, "unit": "%"},
      {"measurement": "% ‘b’", "setting": "[2]; [5]", "value": 99.63, "unit": "%"},
      {"measurement": "% ‘c’", "setting": "[2]; [5]", "value": 0, "unit": "%"},
      {"measurement": "% ‘a’", "setting": "[2]; [6]", "value": 0.13, "unit": "%"},
      {"measurement": "% ‘b’", "setting": "[2]; [6]", "value": 99.76, "unit": "%"},
      {"measurement": "% ‘c’", "setting": "[2]; [6]", "value": 0, "unit": "%"},
      {"measurement": "% ‘a’", "setting": "[2]; [7]", "value": 0.13, "unit": "%"},
      {"measurement": "% ‘b’", "setting": "[2]; [7]", "value": 99.64, "unit": "%"},
      {"measurement": "% ‘c’", "setting": "[2]; [7]", "value": 0, "unit": "%"},
      {"measurement": "% ‘a’", "setting": "[2]; [8]", "value": 0.63, "unit": "%"},
      {"measurement": "% ‘b’", "setting": "[2]; [8]", "value": 99.02, "unit": "%"},
      {"measurement": "% ‘c’", "setting": "[2]; [8]", "value": 0, "unit": "%"},
      {"measurement": "% ‘a’", "setting": "[2]; [9]", "value": 6.35, "unit": "%"},
      {"measurement": "% ‘b’", "setting": "[2]; [9]", "value": 93.13, "unit": "%"},
      {"measurement": "% ‘c’", "setting": "[2]; [9]", "value": 0, "unit": "%"},
      {"measurement": "% ‘a’", "setting": "[2]; [10]", "value": 1.16, "unit": "%"},
      {"measurement": "% ‘b’", "setting": "[2]; [10]", "value": 98.41, "unit": "%"},
      {"measurement": "% ‘c’", "setting": "[2]; [10]", "value": 0, "unit": "%"},
      {"measurement": "% ‘a’", "setting": "[2]; [11]", "value": 0.34, "unit": "%"},
      {"measurement": "% ‘b’", "setting": "[2]; [11]", "value": 98.88, "unit": "%"},
      {"measurement": "% ‘c’", "setting": "[2]; [11]", "value": 0.01, "unit": "%"},
      {"measurement": "stability in terms of the formation of isoform 'a'", "setting": "[3]", "value": "rearranges to isoform ‘a’ and subsequently isoform ‘c’"}
    ]}
  ]
}
